Assay results as given in patent US20080318880A1, “Neoadjuvant treatment of Breast Cancer” (The University of Manitoba, priority 2002, published 2008).
“And” between values parts separate entries of the source, which are not always exact repeats. Equal values may be shown once.

System: inflammatory or T3 to T4 breast cancer
Experiment: Phase II clinical trial of neoadjuvant DPPE plus anthracycline/taxane chemotherapy
Type: in vivo, human
Method: In the neoadjuvant treatment of inflammatory or T3 to T4 breast cancer, the diphenyl compound preferably is used in an amount of about 3 to about 10 mg/kg of patient, administered intravenously over a period of about 30 to about 90 minutes prior to administration of the chemotherapeutic agents and continuing for the period of administration of the chemotherapy agent. In the specific Phase II clinical trial described herein, there was employed 6 mg/kg of DPPE in the form of its hydrochloride salt, administered intravenously as an aqueous solution thereof over 80 minutes, with the last twenty minutes being accompanied by infusion of the chemotherapeutic agents, followed by the intravenous administration of an aqueous solution at a dose of 2.5 mg/kg of DPPE for 180 minutes accompanied by the infusion of Taxol® or for 60 minutes accompanied by the infusion of Taxotere®. The chemotherapy agents which are employed herein preferably are used in a total amount of 75 to about 225 mg/M^2 of patient consistent with the identity of the chemotherapy agent. The chemotherapeutic agents may be administered in an amount of about 50 to about 60 mg/M^2 of patient for doxorubicin or epirubicin, about 175 to about 225 mg/M^2 of Taxol® and about 75 to about 100 mg/M^2 of Taxotere®. In the specific Phase II clinical trial described herein, there was employed 50 mg/M^2 of doxorubicin or epirubicin, and 175 mg/M^2 of Taxol® or 75 mg/M^2 of Taxotere®, administered over the last 20 minutes of infusion of the DPPE solution and over a further 180 minutes for Taxol® or 60 minutes for Taxotere®, accompanied by infusion of a 2.5 mg/kg of DPPE solution. As noted above, patients with inflammatory breast cancer or T3 to T4 breast cancer are subjected to a number of cycles of chemotherapy at predetermined intervals to reduce the size of the tumor to an operable size. The number of cycles for each patient is generally about 5 to about 8 cycles, with about 21 to about 28 days between each cycle. In the Phase II clinical trial, patients were subjected to 6 cycles at time intervals of 21 days. A Phase II clinical trial was carried out in which patients (N=8) with inflammatory (N=7) and T3 to T4 (N=1) breast cancer were treated with a combination of DPPE and epirubicin (EPI)/Taxol® (N=5), a combination of DPPE and doxorubicin (DOX)/Taxol® (N=2) and DPPE and a combination of DPPE and epirubicin/Taxotere® (N=1). DPPE was administered at a dose of […] over 80 minutes with a combination of epirubicin or doxorubicin at a dose of 50 mg/M^2 and Taxol® at a dose of 175 mg/M^2 or Taxotere® at a dose of 75 mg/M^2 over the last 20 minutes and during a further 180 minutes for Taxol® or 60 minutes for Taxotere®, at a dose of 2.5 mg/kg. The treatment was repeated at 21 day intervals for 6 cycles. The eight patients with inflammatory or T3 to T4 breast cancer had no previous chemo- or radiotherapy. When the chemotherapy cycles were complete, the cancerous tissue was removed and the patients observed. The results obtained are shown in Table I. In this Table, the abbreviation TTP stands for time to progression and the abbreviation OS stands for overall survival. […] This patient remains disease-free at 55+ months.

[1] = 8 patients pooled: 5 DPPE/EPI/TAXOL, 2 DPPE/DOX/TAXOL, 1 DPPE/EPI/TAXOTERE
[2] = number of patients of 8, first figure of cell, same regimens
[3] = number of patients of 8, second figure of cell, marked *, same regimens

CCN(CC)CCOc1ccc(Cc2ccccc2)cc1 [DPPE, N,N-diethyl-2-[4-(phenylmethyl)-phenoxy]ethanamine]
OS (overall survival), median [1]: 43+ mos. | TTP (time to progression), median [1]: 21 mos. | overall outcome of trial (DPPE along with doxorubicin/epirubicin and Taxol/Taxotere): effective neoadjuvant treatment which lead to long term survival post surgery | Response CR (number of patients of 8, first figure of cell (not marked as pathological criteria), DPPE 6 mg/M^2 over 80 min + epirubicin or doxorubicin 50 mg/M^2 + Taxol 175 mg/M^2 or Taxotere 75 mg/M^2, 6 cycles at 21 day intervals): 4 | Response NR [2]: 1 | Response PR [2]: 3 | Response CR, pathological criteria (number of patients of 8, second figure of cell, marked * (pathological criteria), same regimens): 2 | Response NR, pathological criteria [3]: 2 | Response PR, pathological criteria [3]: 4 | response of individual patient (third patient, only high-grade cells on cytology): clinical/pathological complete remission | disease-free time of individual patient (third patient, with complete remission): ≥ 55 months | high-grade tumor component post-surgery (two long-term survivors with mixed high-grade tumors pre-treatment): no high-grade component post-surgery | survival of individual long-term survivors (two patients with mixed high-grade tumors pre-treatment): ≥ 45 months and ≥ 53 months
